Tests used:
Assay in all cases: relative viability (nuclei count vs DMSO), 5 days (fraction); higher = more cells survive
Bleomycin + Trametinib = compound: CC1=C(N=C(N=C1N)[C@H](CC(=O)N)NC[C@@H](C(=O)N)N)C(=O)N[C@@H]([C@H](C2=CN=CN2)OC3C(C(C(C(O3)CO)O)O)OC4C(C(C(C(O4)CO)O)OC(=O)N)O)C(=O)N[C@H](C)[C@H]([C@H](C)C(=O)N[C@@H]([C@@H](C)O)C(=O)NCCC5=NC(=CS5)C6=NC(=CS6)C(=O)NCCC[S+](C)C)O [Bleomycin] + CC(=O)Nc1cccc(-n2c(=O)n(C3CC3)c(=O)c3c(Nc4ccc(I)cc4F)n(C)c(=O)c(C)c32)c1 [Trametinib] (partner 0.02 µM); settings: main component drawn
How it was run: (§1)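 Dosing by pin tool came one day after lung cancer cell lines were seeded in 1536-well plates, using either one drug or a fixed anchor-drug dose plus five library-drug doses (not always all listed) in √10 steps. After 5 days, nuclei were counted on 4× images. Relative viability is treated-well nuclei count divided by vehicle-well nuclei count, and values are medians of duplicate plates.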

Etoposide + Olaparib = compound: COc1cc([C@@H]2c3cc4c(cc3[C@@H](O[C@@H]3O[C@@H]5CO[C@@H](C)O[C@H]5[C@H](O)[C@H]3O)[C@H]3COC(=O)[C@H]23)OCO4)cc(OC)c1O [Etoposide] + O=C(c1cc(Cc2n[nH]c(=O)c3ccccc23)ccc1F)N1CCN(C(=O)C2CC2)CC1 [Olaparib] (partner 8 µM)
How it was run: as §1

Etoposide + Pictilisib = compound: COc1cc([C@@H]2c3cc4c(cc3[C@@H](O[C@@H]3O[C@@H]5CO[C@@H](C)O[C@H]5[C@H](O)[C@H]3O)[C@H]3COC(=O)[C@H]23)OCO4)cc(OC)c1O [Etoposide] + CS(=O)(=O)N1CCN(Cc2cc3nc(-c4cccc5[nH]ncc45)nc(N4CCOCC4)c3s2)CC1 [Pictilisib] (partner 1 µM)
How it was run: as §1

Bleomycin + Luminespib = compound: CC1=C(N=C(N=C1N)[C@H](CC(=O)N)NC[C@@H](C(=O)N)N)C(=O)N[C@@H]([C@H](C2=CN=CN2)OC3C(C(C(C(O3)CO)O)O)OC4C(C(C(C(O4)CO)O)OC(=O)N)O)C(=O)N[C@H](C)[C@H]([C@H](C)C(=O)N[C@@H]([C@@H](C)O)C(=O)NCCC5=NC(=CS5)C6=NC(=CS6)C(=O)NCCC[S+](C)C)O [Bleomycin] + CCNC(=O)c1noc(-c2cc(C(C)C)c(O)cc2O)c1-c1ccc(CN2CCOCC2)cc1 [Luminespib] (partner 0.01 µM); settings: main component drawn
How it was run: as §1

Cell Line | relative viability (Bleomycin + Trametinib; first compound 0.01 µM) | relative viability (Bleomycin + Trametinib; first compound 0.03162 µM) | relative viability (Bleomycin + Trametinib; first compound 0.1 µM) | relative viability (Bleomycin + Trametinib; first compound 0.3162 µM) | relative viability (Bleomycin + Trametinib; first compound 1 µM) | relative viability (Etoposide + Olaparib; first compound 0.01 µM) | relative viability (Etoposide + Olaparib; first compound 0.03162 µM) | relative viability (Etoposide + Olaparib; first compound 0.1 µM) | relative viability (Etoposide + Olaparib; first compound 0.3162 µM) | relative viability (Etoposide + Olaparib; first compound 1 µM) | relative viability (Etoposide + Pictilisib; first compound 0.01 µM) | relative viability (Etoposide + Pictilisib; first compound 0.03162 µM) | relative viability (Etoposide + Pictilisib; first compound 0.1 µM) | relative viability (Etoposide + Pictilisib; first compound 0.3162 µM) | relative viability (Etoposide + Pictilisib; first compound 1 µM) | relative viability (Bleomycin + Luminespib; first compound 0.01 µM) | relative viability (Bleomycin + Luminespib; first compound 0.03162 µM) | relative viability (Bleomycin + Luminespib; first compound 0.1 µM) | relative viability (Bleomycin + Luminespib; first compound 0.3162 µM) | relative viability (Bleomycin + Luminespib; first compound 1 µM)
HCC-15 | 0.348 | 0.338 | 0.365 | 0.209 | 0.186 | 0.699 | 0.613 | 0.629 | 0.266 | 0.162 | 0.758 | 0.713 | 0.428 | 0.292 | 0.141 | 0.183 | 0.231 | 0.203 | 0.164 | 0.144
HCC-44 | 0.914 | 0.924 | 0.827 | 0.369 | 0.388 | 1.02 | 1.04 | 1.04 | 0.918 | 0.543 | 0.529 | 0.601 | 0.531 | 0.589 | 0.275 | 0.39 | 0.277 | 0.261 | 0.187 | 0.239
HCC-78 | 0.575 | 0.679 | 0.651 | 0.632 | 0.593 | 0.679 | 0.795 | 0.553 | 0.259 | 0.235 | 0.218 | 0.202 | 0.144 | 0.188 | 0.15 | – | – | – | – | –
HCC-366 | 0.219 | 0.144 | 0.147 | 0.0475 | 0.0448 | 0.292 | 0.304 | 0.217 | 0.0515 | 0.0449 | 0.198 | 0.188 | 0.0748 | 0.0491 | 0.0362 | – | – | – | – | –
HCC-827 | 0.495 | – | 0.502 | 0.273 | 0.209 | 0.685 | 0.623 | 0.43 | 0.16 | 0.164 | 1.03 | 0.878 | 0.564 | 0.479 | 0.366 | 0.525 | 0.576 | 0.377 | 0.39 | 0.233
HOP-62 | 0.34 | 0.278 | 0.264 | 0.203 | 0.159 | 0.48 | 0.478 | 0.557 | 0.197 | 0.215 | 0.796 | 1.01 | 0.321 | 0.448 | 0.149 | 0.66 | 0.705 | 0.462 | 0.254 | 0.193
IA-LM | – | – | – | – | – | 0.674 | 0.822 | 0.771 | 0.681 | 0.441 | 0.398 | 0.31 | 0.236 | 0.282 | 0.138 | – | – | – | – | –
LC-2-ad | 0.736 | 0.674 | 0.541 | 0.291 | 0.243 | 0.349 | 0.692 | 0.771 | 0.412 | 0.274 | 0.448 | 0.595 | 0.318 | 0.237 | 0.16 | 0.68 | 0.572 | 0.563 | 0.29 | 0.262
